Results: patent US8338472B2, “Hexahydrocyclopentyl[F]indazole carboxamides and derivatives thereof as selective glucocorticoid receptor modulators” (Merck Sharp & Dohme Corp., priority 2008, dated 2012)
pEC50, pKi: −log10 of the molar value. Where two headings read alike, the source gives them in different places.

What was measured:
[1] = target: T1, Glucocorticoid Receptor (Homo sapiens, UniProt P04150); assay: Trans-Activation Modulation of Glucocorticoid Receptor (GRAMMER), MMTV-LUC reporter gene in A549 cells; format: cell-based; conditions: Table 1; for Emax: A549, A549 cells, read-out: Transactivation A549 Cells GRAMMER Emax; for Emax / Transactivation A549 Cells GRAMMER Emax: Emax relative to 300 nM dexamethasone; for pEC50: inflection point, read-out: Transactivation A549 Cells GRAMMER IP; for pEC50 / Transactivation A549 Cells GRAMMER Emax: A549 cells
T1 construct: These cells express large amount of the GR and are very responsive to GC treatment; endogenous in cells; host or cells: A549 cells transiently transfected with the MMTV-LUC reporter
T1 sequence (P04150 1-777): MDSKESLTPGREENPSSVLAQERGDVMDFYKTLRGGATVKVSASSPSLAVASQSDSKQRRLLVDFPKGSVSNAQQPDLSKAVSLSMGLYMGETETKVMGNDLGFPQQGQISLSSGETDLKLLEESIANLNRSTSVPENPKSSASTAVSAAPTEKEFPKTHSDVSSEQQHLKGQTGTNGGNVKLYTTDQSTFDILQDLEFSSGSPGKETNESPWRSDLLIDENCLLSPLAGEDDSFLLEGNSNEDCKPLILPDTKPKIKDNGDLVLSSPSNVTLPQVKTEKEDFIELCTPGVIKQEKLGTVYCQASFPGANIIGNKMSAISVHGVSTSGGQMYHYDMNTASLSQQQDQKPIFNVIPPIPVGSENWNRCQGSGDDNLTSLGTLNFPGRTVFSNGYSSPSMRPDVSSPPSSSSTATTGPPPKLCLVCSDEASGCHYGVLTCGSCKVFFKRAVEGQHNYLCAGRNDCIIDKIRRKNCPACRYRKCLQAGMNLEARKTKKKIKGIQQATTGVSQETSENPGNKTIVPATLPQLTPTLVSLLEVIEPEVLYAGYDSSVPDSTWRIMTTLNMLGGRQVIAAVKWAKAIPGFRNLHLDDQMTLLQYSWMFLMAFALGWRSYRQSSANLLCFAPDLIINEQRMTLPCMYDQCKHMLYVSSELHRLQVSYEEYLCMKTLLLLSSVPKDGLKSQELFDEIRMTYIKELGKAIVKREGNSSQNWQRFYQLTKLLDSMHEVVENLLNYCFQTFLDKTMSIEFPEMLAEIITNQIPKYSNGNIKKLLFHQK
Method in brief: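 Luciferase from a transiently transfected MMTV-LUC reporter was measured after 24 h compound exposure (≤1% DMSO) in A549 or MDA-MB-453 cells. For antagonism, the decrease of 10 nM dexamethasone-induced signal was calculated. For agonism, Emax was referenced to 300 nM dexamethasone.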

[2] = target: T2, glucocorticoid receptor (GR) (Homo sapiens, UniProt P04150); assay: Ligand binding assay (GR BIND), 3H-dexamethasone displacement in MDA-MB-453 cell lysate; conditions: GR BIND Ki, Table 1
T2 sequence (P04150 1-777): T1 sequence (P04150 1-777)

[3] = target: T3, human GR (Homo sapiens, UniProt P04150); assay: Transrepression Assay (GITAR), TNFα-β-lactamase reporter gene in U937 cells; format: cell-based; conditions: for GITAR Greater than by GRAMMER % SEP: GITAR Emax minus GRAMMER Emax; for pEC50: inflection point, read-out: Transrepression U937 Cells GITAR IP; for pEC50 / Transrepression U937 Cells GITAR Emax: U937 cells
T3 construct: U937 cells contain an endogenous glucocorticoid receptor (GR); endogenous in cells; host or cells: U937 cells stably transfected with the TNF-alpha promoter/beta-lactamase reporter
T3 sequence (P04150 1-777): T1 sequence (P04150 1-777)
Method in brief: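 Repression of PMA (5 ng/ml final)/LPS (100 ng/ml final)-induced TNF-α promoter activity, read as β-lactamase cleavage of CCF2-AM, in stably transfected U937 cells expressing native GR. Compound added 30-45 min before stimulation, overnight (~18 hr) 37° C; normalized to 100 nM dexamethasone (100%).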

[4] = U-937, U937 cells, activity repressed by 100 nM dexamethasone = 100%, Table 1, read-out: Transrepression U937 Cells GITAR Emax
[5] = U-937, text statement, 100 nM dexamethasone = 100%, read-out: maximal activity in the transrepression assay (GITAR)
[6] = activity repressed by 100 nM dexamethasone = 100%, Table 1

Emax [1] | pEC50 [1] | pKi [2] | GITAR Greater than by GRAMMER % SEP ([3]; Table 1) | Emax [3, 4] | Emax [3, 5] | pEC50 ([3]; Table 1) | Transactivation A549 Cells GRAMMER Emax [1] | Transrepression U937 Cells GITAR Emax [3, 6] | SMILES
71.1% | 6.82 | 8.68 | 18.4% | 89.5% | > 5% | 6.86 | – | – | C[C@H](O)CN(CCC(F)(F)F)C(=O)[C@H]1CCC2=Cc3c(cnn3-c3ccc(F)cc3)C[C@@]21C [Compound 73, (4αR,5S)-1-(4-fluorophenyl)-N-[(2S)-2-hydroxypropyl]-4α-methyl-N-(3,3,3-trifluoropropyl)-1,4,4α,5,6,7-. hexahydrocyclopenta[f]indazole-5-carboxamide]
– | 6.56 | 7.97 | 35.1% | 73.9% | > 5% | 6.42 | 38.8% | – | CN(CC(O)C(F)(F)F)C(=O)[C@H]1CCC2=Cc3c(cnn3-c3ccccc3)C[C@@]21C (stereo partly drawn) [Compound 74, (4αR,5S)-N,4α-dimethy1-1-phenyl-N-(3,3,3-trifluoro-2-hydroxypropyl)-1,4,4α,5,6,7-hexahydrocyclopenta[f]indazole-5-carboxamide]
– | 6.79 | 8.12 | 18.9% | – | – | 6.74 | 65.2% | 84.0% | CN(CC(O)C(F)(F)F)C(=O)[C@H]1CCC2=Cc3c(cnn3-c3ccccc3)C[C@@]21C (stereo partly drawn) [Compound 75, (4αR,5S)-N,4α-dimethyl-1-phenyl-N-(3,3,3-trifluoro-2-hydroxypropyl)-1,4,4α,5 ,6,7-hexahydrocyclopenta[f]indazole-5-carboxamide]
78.2% | 6.50 | 8.38 | 6.1% | 84.3% | > 5% | 6.65 | – | – | CCN(CC(O)C(F)(F)F)C(=O)[C@H]1CCC2=Cc3c(cnn3-c3ccccc3)C[C@@]21C (stereo partly drawn) [Compound 76, (4αR,5S)-N-ethyl-4α-methyl-1-phenyl-N-(3,3,3-trifluoro-2-hydroxypropyl)-1,4,4α,5,6,7-hexahydrocyclopenta[f]indazole-5-carboxamide]
– | 6.52 | 8.01 | 10.2% | – | – | 6.57 | 67.8% | 78.0% | CCN(CC(O)C(F)(F)F)C(=O)[C@H]1CCC2=Cc3c(cnn3-c3ccccc3)C[C@@]21C (stereo partly drawn) [Compound 77, (4αR,5S)-N-ethyl-4α-methyl-1-phenyl-N-(3,3,3-trifluoro-2-hydroxypropyl)-1,4,4α,5,6,7-hexahydrocyclopenta[f]indazole-5-carboxamide]
65% | 6.78 | 8.57 | 21.0% | 86% | > 5% | 6.75 | – | – | CCCN(CC(O)C(F)(F)F)C(=O)[C@H]1CCC2=Cc3c(cnn3-c3ccccc3)C[C@@]21C (stereo partly drawn) [Compound 78, (4αR,5S)-4α-methyl-1-phenyl-N-propyl-N-(3,3,3-trifluoro-2-hydroxypropyl)-1,4,4α,5,6,7-hexahydrocyclopenta[f]indazole-5-carboxamide]
70.7% | 6.74 | 8.42 | 17.6% | 88.3% | > 5% | 6.79 | – | – | CCCCN(CC(O)C(F)(F)F)C(=O)[C@H]1CCC2=Cc3c(cnn3-c3ccccc3)C[C@@]21C (stereo partly drawn) [Compound 79, (4αR,5S)-N-butyl-4α-methyl-1-phenyl-N-(3,3,3-trifluoro-2-hydroxypropyl)-1,4,4α,5,6,7-hexahydrocyclopenta[f]indazole-5-carboxamide]
70.5% | 6.65 | 8.43 | 12.8% | 83.2% | > 5% | 6.47 | – | – | CC(C)CN(CC(O)C(F)(F)F)C(=O)[C@H]1CCC2=Cc3c(cnn3-c3ccccc3)C[C@@]21C (stereo partly drawn) [Compound 80, (4αR,5S)-N-isobutyl-4a-methyl-1-phenyl-N-(3,3,3-trifluoro-2-hydroxypropyl)-1,4,4α,5,6,7-hexahydrocyclopenta[f]indazole-5-carboxamide]
67.8% | 6.53 | 8.44 | 7.8% | 75.6% | > 5% | 6.47 | – | – | C[C@]12Cc3cnn(-c4ccccc4)c3C=C1CC[C@@H]2C(=O)N(CC1CC1)CC(O)C(F)(F)F (stereo partly drawn) [Compound 81, (4αR,5S)-N-(cyclopropylmethyl)-4α-methyl-1-phenyl-N-(3,3,3-trifluoro-2-hydroxypropyl)-1,4,4α,5,6,7-hexahydrocyclopenta[f]indazole-5-carboxamide]
10.3% | 6.56 | 9.05 | 32.8% | 43.1% | > 5% | 6.44 | – | – | Cc1ccc(CCN(CC(O)C(F)(F)F)C(=O)[C@H]2CCC3=Cc4c(cnn4-c4ccc(F)cc4)C[C@@]32C)cc1 (stereo partly drawn) [Compound 82, (4αR,5S)-1-(4-fluorophenyl)-4α-methyl-N-[2-(4-methylphenyl)ethyl]-N-(3,3,3-trifluoro-2-hydroxypropyl)-1,4,4α,5,6,7-hexahydrocyclopenta[f]indazole-5-carboxamide]
21.6% | 6.44 | 8.66 | 35.3% | 56.9% | > 5% | 6.53 | – | – | COc1ccccc1CCN(CC(O)C(F)(F)F)C(=O)[C@H]1CCC2=Cc3c(cnn3-c3ccc(F)cc3)C[C@@]21C (stereo partly drawn) [Compound 83, (4αR,5S)-1-(4-fluorophenyl)-N-[2-(2-methoxyphenyl)ethyl] -4α-methyl-N-(3,3,3-trifluoro-2-hydroxypropyl)-1,4,4α,5,6,7-hexahydrocyclopenta[f]indazole-5-carboxamide]
– | 6.73 | 9.10 | 25.7% | – | > 5% | 6.72 | 43.7% | 69.4% | C[C@]12Cc3cnn(-c4ccc(F)cc4)c3C=C1CC[C@@H]2C(=O)N(CCc1ccccc1F)CC(O)C(F)(F)F (stereo partly drawn) [Compound 84, (4αR,5S)-1-(4-fluorophenyl)-N-[2(2-fluorophenyl)ethyl]-4α-methyl-N-(3,3,3-trifluoro-2-hydroxypropyl)-1,4,4α,5,6,7-hexahydrocyclopenta[f]indazole-5-carboxamide]
14.2% | 6.40 | 8.46 | 31.1% | 45.3% | > 5% | 6.09 | – | – | Cc1ccc(CCN(CC(O)CC(F)(F)F)C(=O)[C@H]2CCC3=Cc4c(cnn4-c4ccc(F)cc4)C[C@@]32C)cc1 (stereo partly drawn) [Compound 85, (4αR,5S)-1-(4-fluorophenyl)-4α-methyl-N-[2-(4-methylphenyl)ethyl]-N-(4,4,4-trifluoro-2-hydroxybutyl)-1,4,4α,5,6,7-hexahydrocyclopenta[f]indazole-5-carboxamide]
18.8% | 6.39 | 7.94 | 35.1% | 53.9% | > 5% | 6.06 | – | – | COc1ccccc1CCN(CC(O)CC(F)(F)F)C(=O)[C@H]1CCC2=Cc3c(cnn3-c3ccc(F)cc3)C[C@@]21C (stereo partly drawn) [Compound 86, (4αR,5S)-1-(4-fluorophenyl)-N-[2-(2-methoxyphenyl)ethyl]-4α-methyl-N-(4,4,4-trifluoro-2-hydroxybutyl)-1,4,4α,5 ,6,7-hexahydrocyclopenta[f]indazole-5-carboxamide]
